Test results reported in patent publication US9893302B2, “Heterocyclic fluorescent dyes and method of production thereof” (BASF SE, priority 2013, dated 2018).
Where “and” joins values, the source holds several entries; their conditions need not be identical. Equal values may be shown once. Read-outs that look alike come from different tables or passages of the source.

How the values were obtained:
[1] = Spectroscopic data: absorption, emission, Stokes shift, extinction coefficient, fluorescence quantum yield; assay type: physicochemical; conditions: for φfl (fluorescence quantum yield): standards Rhodamine B or Rhodamine 6G in EtOH
Description: Spectroscopic data of compounds 3a, 3b and 3d as well as comparative compounds
Rhodamine B in EtOH or Rhodamine 6G in EtOH are used as standards for quantum yield measurements.

[2] = Solubility in typical organic solvents; assay type: physicochemical; conditions: for solubility compared with compound V-1: in typical organic solvents; for solubility: organic solvent or mixture
Description: Reference is made to the below table.

[3] = in CHCl3, read-out: Solubility in CHCl3
[4] = in Toluene, read-out: Solubility in Toluene

SMILES | fluorescence quantum yield [1] | Stokes shift ([1]; solvent CHCl3) [cm⁻¹] | maxλabs ([1]; solvent CHCl3) [nm] | maxλem ([1]; solvent CHCl3) [nm] | εmax ([1]; solvent CHCl3) [M⁻¹ cm⁻¹] | φfl (fluorescence quantum yield) ([1]; solvent CHCl3) | solubility compared with compound V-1 [2] | solubility [2, 3] | solubility [2, 4] | melting point | Stokes shift ([1]; solvent DMF) [cm⁻¹] | maxλabs ([1]; solvent DMF) [nm] | maxλem ([1]; solvent DMF) [nm] | εmax ([1]; solvent DMF) [M⁻¹ cm⁻¹] | φfl (fluorescence quantum yield) ([1]; solvent DMF)
COc1cc2c(cc1OC)C1=C3C(=O)N4C=C(c5ccccc5)c5cc(OC)c(OC)cc5C4=C3C(=O)N1C=C2c1ccccc1 [3a] | around 80% | 140 | 600 | 605 | 100000 | 0.89 | order of magnitude higher | 3460 µM and 2110 µg/mL | 47 µM and 28.6 µg/mL |  |  |  |  |  | 
CC(C)(C)c1cc(C(C)(C)C)c2oc3c(c2c1)C(c1ccccc1)=CN1C(=O)C2=C4c5oc6c(C(C)(C)C)cc(C(C)(C)C)cc6c5C(c5ccccc5)=CN4C(=O)C2=C31 [3d] | around 80% | 160 | 654 | 661 | 150000 | 0.81 | order of magnitude higher |  |  | > 400 °C (dec.) |  |  |  |  | 
COc1cc2c(cc1OC)C1=C3C(=O)N4C=Cc5cc(OC)c(OC)cc5C4=C3C(=O)N1C=C2 [V-1] |  | 200 | 593 | 600 | 110000 | 0.19 |  | 272 µM and 126 µg/mL | 6.13 µM and 2.85 µg/mL |  | 220 | 593 | 601 | 91000 | 0.22
COc1cccc(C2=CN3C(=O)C4=C5c6cc(OC)c(OC)cc6C(c6cccc(OC)c6)=CN5C(=O)C4=C3c3cc(OC)c(OC)cc32)c1 [3b] | around 80% | 220 | 601 | 609 | 85000 | 0.85 | order of magnitude higher | 955 µM and 639 µg/mL | 53.4 µM and 35.7 µg/mL |  |  |  |  |  | 
CC(C)(C)c1cc(C(C)(C)C)c2oc3c(c2c1)C=CN1C(=O)C2=C4c5oc6c(C(C)(C)C)cc(C(C)(C)C)cc6c5C=CN4C(=O)C2=C31 [V-2] |  | 210 | 643 | 652 | 120000 | 0.05 |  |  |  |  | 240 | 645 | 655 | 107000 | 0.02
